Results: patent publication US11084800B2 (Achillion Pharmaceuticals, Inc., priority 2017, dated 2021)

What follows are compounds tested against Human Factor D (Homo sapiens (Human), UniProt P00746) (assay: Human Factor D Assay). Conditions: Factor D inhibition, assay of Example 10; read-out: IC5 (Stars).
Type: biochemical
Outline: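 Thioester substrate Z-L-Lys-SBz (100 μM) with Ellman's reagent DTNB (100 μM) reports activity of 80 nM human serum-derived enzyme, kinetically at 405 nm over 30 min. Compound preincubated 5 min, room temperature, pH 7.5 Tris/1 M NaCl; IC50 by nonlinear fit of rates.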

Chain of Human Factor D (P00746 26-253): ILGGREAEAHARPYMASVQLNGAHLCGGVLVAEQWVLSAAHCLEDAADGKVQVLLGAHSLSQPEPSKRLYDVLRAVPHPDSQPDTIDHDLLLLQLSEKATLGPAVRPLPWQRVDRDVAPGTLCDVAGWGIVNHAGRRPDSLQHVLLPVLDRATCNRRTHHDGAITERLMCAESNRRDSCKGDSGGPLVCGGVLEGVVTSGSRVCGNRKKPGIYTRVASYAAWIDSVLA

| SMILES | IC50 |
| --- | --- |
| CC(=O)c1nn(CC(=O)N(C(=O)[C@@H]2C[C@@]3(C)C[C@H]3N2)c2nc(Br)ccc2CN(CCC(F)(F)F)CCC(F)(F)F)c2cnc(-c3cnc(C)nc3)cc12 [Compound 396, (1R,3S,5R)-2-(2-(3-acetyl-5-(2-methylpyrimidin-5-yl)-1H-pyrazolo[3,4-c]pyridin-1-yl)acetyl)-N-(3-((bis(3,3,3-trifluoropropyl)amino)methyl)-6-bromopyridin-2-yl)-5-methyl-2-azabicyclo[3.1.0]hexane-3-carboxamide] | < 1000 nM |
| CC(=O)c1nn(CC(=O)N2[C@H](C(=O)Nc3nc(Br)ccc3Cc3nn[nH]n3)C[C@@]3(C)C[C@@H]23)c2cnc(-c3cnc(C)nc3)cc12 [Compound 397, (1R, 3S, 5R)—N-(3-((2H-Tetrazol-5-yl)methyl)-6-bromopyridin-2-yl)-2-(2-(3-acetyl-5-(2-methylpyrimidin-5-yl)-1H-pyrazolo[3,4-c]pyridin-1-yl)acetyl)-5-methyl-2-azabicyclo[3.1.0]hexane-3-carboxamide] | < 1000 nM |
| CC(=O)c1nn(CC(=O)N2[C@H](C(=O)Nc3nc(Br)ccc3CN(C)C)C[C@@]3(C)C[C@@H]23)c2cc(Cl)c(-c3cnc(C)nc3)cc12 [Compound 399, (1R,3S,5R)-2-(2-(3-acetyl-6-chloro-5-(2-methylpyrimidin-5-yl)-1H-indazol-1-yl)acetyl)-N-(6-bromo-3-((dimethylamino)methyl)pyridin-2-yl)-5-methyl-2-azabicyclo[3.1.0]hexane-3-carboxamide] | < 1000 nM |
| CC(=O)c1nn(CC(=O)N2[C@H](C(=O)Nc3nc(Br)ccc3CCCN3CCOCC3)C[C@@]3(C)C[C@@H]23)c2cnc(-c3cnc(C)nc3)cc12 [Compound 400, (1R,3S,5R)-2-(2-(3-Acetyl-5-(2-methylpyrimidin-5-yl)-1H-pyrazolo[3,4-c]pyridin-1-yl)acetyl)-N-(6-bromo-3-(3-morpholinopropyl)pyridin-2-yl)-5-methyl-2-azabicyclo[3.1.0]hexane-3-carboxamide] | < 1000 nM |
| Cc1ncc(-c2cc3c(C(C)O)nn(CC(=O)N4[C@H](C(=O)Nc5nc(Br)ccc5C)C[C@@]5(C)C[C@@H]45)c3cn2)cn1 (stereo partly drawn) [Compound 402, (1R,3S,5R)-N-(6-bromo-3-methylpyridin-2-yl)-2-(2-(3-(1-hydroxyethyl)-5-(2-methylpyrimidin-5-yl)-1H-pyrazolo[3,4-c]pyridin-1-yl)acetyl)-5-methyl-2-azabicyclo[3.1.0]hexane-3-carboxamide] | 1000 to 10000 nM |
| Cc1ncc(-c2cc(C)c3c(c2)c(C#N)nn3CC(=O)N2[C@H](C(=O)Nc3nc(Br)ccc3C)C[C@@]3(C)C[C@@H]23)cn1 [Compound 407, (1R,3S,5R)-N-(6-bromo-3-methylpyridin-2-yl)-2-(2-(3-cyano-7-methyl-5-(2-methylpyrimidin-5-yl)-1H-indazol-1-yl)acetyl)-5-methyl-2-azabicyclo[3.1.0]hexane-3-carboxamide] | < 1000 nM |
| CC(=O)c1nn(CC(=O)N2[C@H](C(=O)Nc3nc(Br)ccc3CN(C)C)C[C@@]3(C)C[C@@H]23)c2c(Cl)cc(-c3cnc(C)nc3)cc12 [Compound 408, (1R,3S,5R)-2-(2-(3-acetyl-7-chloro-5-(2-methylpyrimidin-5-yl)-1H-indazol-1-yl)acetyl)-N-(6-bromo-3-((dimethylamino)methyl)pyridin-2-yl)-5-methyl-2-azabicyclo[3.1.0]hexane-3-carboxamide] | < 1000 nM |
| CC(=O)c1nn(CC(=O)N2[C@H](C(=O)Nc3nc(Br)ccc3C)C[C@@]3(Cc4nc(C)no4)C[C@@H]23)c2c(CF)cc(-c3cnc(C)nc3)cc12 [Compound 409, (1R,3S,5R)-2-(2-(3-acetyl-7-(fluoromethyl)-5-(2-methylpyrimidin-5-yl)-1H-indazol-1-yl)acetyl)-N-(6-bromo-3-methylpyridin-2-yl)-5-((3-methyl-1,2,4-oxadiazol-5-yl)methyl)-2-azabicyclo[3.1.0]hexane-3-carboxamide] | < 1000 nM |
| CC(=O)c1nn(CC(=O)N2C[C@@](F)(CF)C[C@H]2C(=O)Nc2nc(Br)ccc2C)c2c(C)nc(-c3cnc(C)nc3)cc12 [Compound 410, (2S,4R)-1-(2-(3-acetyl-7-methyl-5-(2-methylpyrimidin-5-yl)-1H-pyrazolo[3,4-c]pyridin-1-yl)acetyl)-N-(6-bromo-3-methylpyridin-2-yl)-4-fluoro-4-(fluoromethyl)pyrrolidine-2-carboxamide] | < 1000 nM |
| CC(=O)c1nn(CC(=O)N2C[C@H]3C[C@H]3[C@H]2C(=O)NCc2cccc(Cl)c2F)c2c(C)nc(-c3cnc(C)nc3)cc12 [Compound 411, (1R,2S,5S)-3-(2-(3-acetyl-7-methyl-5-(2-methylpyrimidin-5-yl)-1H-pyrazolo[3,4-c]pyridin-1-yl)acetyl)-N-(3-chloro-2-fluorobenzyl)-3-azabicyclo[3.1.0]hexane-2-carboxamide] | < 1000 nM |
| CC(=O)c1nn(CC(=O)N2C[C@H]3C[C@H]3[C@H]2C(=O)NCc2cccc(Cl)c2F)c2ccc(-c3cnc(C)nc3)cc12 [Compound 412, (1R,2S,5S)-3-(2-(3-acetyl-5-(2-methylpyrimidin-5-yl)-1H-indazol-1-yl)acetyl)-N-(3-chloro-2-fluorobenzyl)-3-azabicyclo[3.1.0]hexane-2-carboxamide] | < 1000 nM |
| CC(=O)c1nn(CC(=O)N2C[C@H]3C[C@H]3[C@H]2C(=O)NCc2cccc(Cl)c2F)c2c(C)cc(-c3cnc(C)nc3)cc12 [Compound 413] | < 1000 nM |
| CC(=O)c1nn(CC(=O)N2[C@H](C(=O)Nc3nc(Br)ccc3C)C[C@@]3(CN(C(C)C)C(C)C)C[C@@H]23)c2c(C)cc(-c3cnc(C)nc3)cc12 [Compound 415, (1R,3S,5R)-2-(2-(3-acetyl-7-methyl-5-(2-methylpyrimidin-5-yl)-1H-indazol-1-yl)acetyl)-N-(6-bromo-3-methylpyridin-2-yl)-5-((diisopropylamino)methyl)-2-azabicyclo[3.1.0]hexane-3-carboxamide] | < 1000 nM |
| CC(=O)c1cn(CC(=O)N2[C@H](C(=O)Nc3nc(Br)ccc3C)C[C@@]3(C)C[C@@H]23)c2ccc(-c3cnc(C)nc3)cc12 [Compound 416, (1R,3S,5R)-2-(2-(3-acetyl-5-(2-methylpyrimidin-5-yl)-1H-indol-1-yl)acetyl)-N-(6-bromo-3-methylpyridin-2-yl)-5-methyl-2-azabicyclo[3.1.0]hexane-3-carboxamide] | < 1000 nM |
| CC(=O)c1nn(CC(=O)N2C[C@@](F)(CF)C[C@H]2C(=O)Nc2nc(Br)c(F)cc2C)c2c(C)nc(-c3cnc(C)nc3)cc12 [Compound 417, (2S,4R)-1-(2-(3-acetyl-7-methyl-5-(2-methylpyrimidin-5-yl)-1H-pyrazolo[3,4-c]pyridin-1-yl)acetyl)-N-(6-bromo-5-fluoro-3-methylpyridin-2-yl)-4-fluoro-4-(fluoromethyl)pyrrolidine-2-carboxamide] | < 1000 nM |
| CC(=O)c1nn(CC(=O)N2C[C@@](F)(CF)C[C@H]2C(=O)Nc2cncc(Br)n2)c2c(C)nc(-c3cnc(C)nc3)cc12 [Compound 418, (2S,4R)-1-(2-(3-acetyl-7-methyl-5-(2-methylpyrimidin-5-yl)-1H-pyrazolo[3,4-c]pyridin-1-yl)acetyl)-N-(6-bromopyrazin-2-yl)-4-fluoro-4-(fluoromethyl)pyrrolidine-2-carboxamide] | < 1000 nM |
| CC(=O)c1nn(CC(=O)N2C[C@](F)(Cn3ccnn3)C[C@H]2C(=O)Nc2nc(Br)ccc2C)c2ccc(-c3cnc(C)nc3)cc12 [Compound 419] | < 1000 nM |
| CC(=O)c1nn(CC(=O)N2C[C@](F)(CN(C)C)C[C@H]2C(=O)Nc2nc(Br)ccc2C)c2ccc(-c3cnc(C)nc3)cc12 [Compound 420, (2S,4R)-1-(2-(3-acetyl-5-(2-methylpyrimidin-5-yl)-1H-indazol-1-yl)acetyl)-N-(6-bromo-3-methylpyridin-2-yl)-4-((dimethylamino)methyl)-4-fluoropyrrolidine-2-carboxamide] | 1000 to 10000 nM |
| CC(=O)c1nn(CC(=O)N2C[C@](F)(CF)C[C@H]2C(=O)Nc2nc(Br)ccc2C)c2ccc(-c3cnc(C)nc3)cc12 [Compound 422, (2S,4S)-1-(2-(3-acetyl-5-(2-methylpyrimidin-5-yl)-1H-indazol-1-yl)acetyl)-N-(6-bromo-3-methylpyridin-2-yl)-4-fluoro-4-(fluoromethyl)pyrrolidine-2-carboxamide] | < 1000 nM |

Same assay, conditions: Table 8; Factor D 80 nM, substrate Z-L-Lys-SBz; read-out: IC50

| IC50 | SMILES |
| --- | --- |
| < 1000 nM | COC(=O)CCCCCCCCCCCCCCCCC(=O)N[C@@H](CCC(=O)NCCOCCOCC(=O)NCCOCCOCC(=O)NCc1ncc(-c2cc3c(C(C)=O)nn(CC(=O)N4[C@H](C(=O)Nc5nc(Br)ccc5C)C[C@@]5(C)C[C@@H]45)c3cn2)cn1)C(=O)OC [Compound 405] |
| < 1000 nM | COC(=O)CCCCCCCCCCCCCCCCC(=O)N[C@@H](CCC(=O)NCCOCCOCC(=O)NCCOCCOCC(=O)NC[C@@]12C[C@@H](C(=O)Nc3nc(Br)ccc3C)N(C(=O)Cn3nc(C(C)=O)c4cc(-c5cnc(C)nc5)ncc43)[C@@H]1C2)C(=O)OC [Compound 406] |
| < 1000 nM | CC(=O)c1nn(CC(=O)N2[C@H](C(=O)Nc3nc(Br)ccc3C)C[C@@]3(C)C[C@@H]23)c2cnc(-c3cnc(CNC(=O)COCCOCCNC(=O)COCCOCCNC(=O)CC[C@H](NC(=O)CCCCCCCCCCCCCCCCC(=O)O)C(=O)O)nc3)cc12 [Compound 414] |

| SMILES | IC50 |
| --- | --- |
| COC(=O)CCCCCCCCCCCCCCCCC(=O)N[C@@H](CCC(=O)NCCOCCOCC(=O)NCCOCCOCC(=O)NCc1ncc(-c2cc(C)c3c(c2)c(C(C)=O)nn3CC(=O)N2[C@H](C(=O)Nc3nc(Br)ccc3C)C[C@@]3(C)C[C@@H]23)cn1)C(=O)O [Compound 403] | < 1000 nM |
| CC(=O)c1nn(CC(=O)N2[C@H](C(=O)Nc3nc(Br)ccc3C)C[C@@]3(C)C[C@@H]23)c2c(C)cc(-c3cnc(CNC(=O)COCCOCCNC(=O)COCCOCCNC(=O)CC[C@H](NC(=O)CCCCCCCCCCCCCCCCC(=O)O)C(=O)O)nc3)cc12 [Compound 404] | < 1000 nM |
